Patent publication US6750219B1, “Ω-amino-α-hydroxycarboxylic acid derivatives having integrin ανβ3 antagonistic activity” (Meiji Seika Kaisha, Ltd., priority 1999, dated 2004)

Columns and labels:
[1] = target: T1, integrin αvβ3 (vitronectin receptor purified from the human placenta) (Homo sapiens, UniProt P05106+P06756); test: αvβ3 binding assay (vitronectin-vitronectin receptor binding assay); conditions: vitronectin binding to vitronectin receptor purified from human placenta; read-out: integrin αvβ3 antagonistic activity (IC50)
T1 construct: a vitronectin receptor (protein content: 118 mg/ml) purified from the human placenta; from tissue; host or cells: human placenta
T1 sequence (P06756 31-889 limits assumed): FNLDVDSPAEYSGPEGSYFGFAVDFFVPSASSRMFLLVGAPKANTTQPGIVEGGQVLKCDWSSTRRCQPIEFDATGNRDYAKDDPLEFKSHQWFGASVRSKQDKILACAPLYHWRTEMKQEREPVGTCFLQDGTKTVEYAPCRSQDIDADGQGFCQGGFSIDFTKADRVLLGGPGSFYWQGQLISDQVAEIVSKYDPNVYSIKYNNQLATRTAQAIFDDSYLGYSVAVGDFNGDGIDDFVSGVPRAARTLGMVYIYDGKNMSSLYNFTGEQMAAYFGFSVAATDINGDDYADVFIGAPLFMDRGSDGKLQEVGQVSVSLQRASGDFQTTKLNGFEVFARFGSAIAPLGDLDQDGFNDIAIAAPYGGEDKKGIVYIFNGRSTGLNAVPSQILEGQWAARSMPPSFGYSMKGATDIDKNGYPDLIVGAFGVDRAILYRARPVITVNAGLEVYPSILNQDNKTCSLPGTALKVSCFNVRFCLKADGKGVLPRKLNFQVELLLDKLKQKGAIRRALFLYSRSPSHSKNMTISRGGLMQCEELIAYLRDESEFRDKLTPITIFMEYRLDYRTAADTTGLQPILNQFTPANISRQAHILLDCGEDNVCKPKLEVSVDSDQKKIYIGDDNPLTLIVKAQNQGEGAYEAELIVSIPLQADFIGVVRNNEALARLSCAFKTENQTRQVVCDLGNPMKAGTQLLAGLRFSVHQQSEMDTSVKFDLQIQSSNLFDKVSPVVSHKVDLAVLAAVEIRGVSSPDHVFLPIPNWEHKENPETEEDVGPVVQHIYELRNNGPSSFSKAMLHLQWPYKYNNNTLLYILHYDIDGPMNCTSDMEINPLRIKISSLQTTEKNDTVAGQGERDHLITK
T1 sequence (P06756 891-1048 limits assumed): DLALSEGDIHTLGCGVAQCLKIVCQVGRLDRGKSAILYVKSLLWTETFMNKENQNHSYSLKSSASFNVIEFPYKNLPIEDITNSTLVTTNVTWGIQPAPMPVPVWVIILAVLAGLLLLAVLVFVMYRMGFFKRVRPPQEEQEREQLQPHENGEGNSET
T1 sequence (P05106 27-788): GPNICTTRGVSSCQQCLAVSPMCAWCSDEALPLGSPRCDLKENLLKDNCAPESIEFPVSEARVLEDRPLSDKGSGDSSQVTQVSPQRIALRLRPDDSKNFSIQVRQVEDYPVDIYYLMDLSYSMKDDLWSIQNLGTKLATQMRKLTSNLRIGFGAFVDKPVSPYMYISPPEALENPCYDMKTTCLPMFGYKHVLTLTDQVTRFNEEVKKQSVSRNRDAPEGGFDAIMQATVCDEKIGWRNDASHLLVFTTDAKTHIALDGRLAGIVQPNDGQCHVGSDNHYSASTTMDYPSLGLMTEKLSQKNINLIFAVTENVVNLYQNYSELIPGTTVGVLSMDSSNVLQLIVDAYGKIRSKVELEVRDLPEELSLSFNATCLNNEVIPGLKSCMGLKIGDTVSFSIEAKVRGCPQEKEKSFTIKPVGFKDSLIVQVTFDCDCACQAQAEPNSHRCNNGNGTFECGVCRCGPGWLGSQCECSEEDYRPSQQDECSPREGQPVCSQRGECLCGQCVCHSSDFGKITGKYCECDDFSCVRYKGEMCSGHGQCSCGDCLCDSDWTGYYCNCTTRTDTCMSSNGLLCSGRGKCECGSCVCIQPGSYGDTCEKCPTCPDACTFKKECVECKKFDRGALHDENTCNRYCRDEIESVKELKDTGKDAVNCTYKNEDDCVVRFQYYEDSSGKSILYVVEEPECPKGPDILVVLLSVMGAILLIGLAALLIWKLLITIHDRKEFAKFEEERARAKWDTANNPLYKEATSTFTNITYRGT
Method: Pharmacological Test Example 1: αvβ3 Binding Assay
Integrin αvβ3 antagonistic activity was first measured in a vitronectin-vitronectin receptor binding assay system in accordance with the method of Kouns et al. (W. C. Kouns, D. Kirchhofer, P. Hadvary, A. Edenhofer, T. Weller, G. Pfenninger, H. R. Baumgartner, L. K. Jennings and B. Steiner, Blood, 80, 2539-2547 (1992)). […] A 0.1 M citric acid buffer (pH 4.3) containing 0.05% NaN3 was added in an amount of […] to stop the reaction, followed by the measurement of the absorbance at 415 nm with a microplate reader (MTP 32, Corona Electric) (reference: 675 nm). The total binding was defined as the absorbance after a reaction using 50 ml of TBS-Tween instead of the test compound, and the non-specific binding (100% inhibition) was defined as the absorbance after a reaction using 50 ml of TBS-Tween containing 2×10^−3 M RGDS. The inhibition was calculated by the following equation: [formula]
IC50 was determined from a primary regression line of the logarithm of each concentration of the test compound and the logarithm of (100-inhibition)/inhibition.

GP IIb/IIIa = GP IIb/IIIa (Homo sapiens, UniProt P05106+P08514); test: GP IIb/IIIa antagonistic activity (Pharmacological Test 2 in WO 94/21599); format: binding
GP IIb/IIIa, sequence (P08514 32-887 limits assumed): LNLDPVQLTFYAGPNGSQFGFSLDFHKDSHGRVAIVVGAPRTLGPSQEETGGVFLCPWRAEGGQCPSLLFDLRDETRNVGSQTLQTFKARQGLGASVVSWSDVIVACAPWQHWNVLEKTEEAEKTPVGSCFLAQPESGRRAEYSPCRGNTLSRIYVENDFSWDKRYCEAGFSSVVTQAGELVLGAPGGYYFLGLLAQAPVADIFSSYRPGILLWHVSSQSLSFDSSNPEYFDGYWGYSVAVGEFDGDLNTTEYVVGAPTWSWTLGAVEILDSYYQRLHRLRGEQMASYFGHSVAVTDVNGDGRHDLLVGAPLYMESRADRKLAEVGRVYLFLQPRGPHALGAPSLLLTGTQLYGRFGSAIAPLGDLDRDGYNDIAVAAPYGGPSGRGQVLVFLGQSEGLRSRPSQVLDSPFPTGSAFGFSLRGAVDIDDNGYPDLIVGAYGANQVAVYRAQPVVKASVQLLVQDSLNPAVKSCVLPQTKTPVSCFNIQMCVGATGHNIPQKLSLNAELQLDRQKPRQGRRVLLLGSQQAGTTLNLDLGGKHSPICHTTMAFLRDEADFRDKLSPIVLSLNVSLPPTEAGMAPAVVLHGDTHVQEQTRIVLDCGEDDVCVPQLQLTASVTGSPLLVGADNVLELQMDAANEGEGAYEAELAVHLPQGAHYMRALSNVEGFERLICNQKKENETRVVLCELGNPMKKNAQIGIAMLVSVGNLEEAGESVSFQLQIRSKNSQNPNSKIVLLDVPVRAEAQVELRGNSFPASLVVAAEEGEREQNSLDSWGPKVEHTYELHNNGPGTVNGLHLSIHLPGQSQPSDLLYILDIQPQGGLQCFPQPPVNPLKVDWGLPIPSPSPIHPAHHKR
GP IIb/IIIa, sequence (P08514 891-1039 limits assumed): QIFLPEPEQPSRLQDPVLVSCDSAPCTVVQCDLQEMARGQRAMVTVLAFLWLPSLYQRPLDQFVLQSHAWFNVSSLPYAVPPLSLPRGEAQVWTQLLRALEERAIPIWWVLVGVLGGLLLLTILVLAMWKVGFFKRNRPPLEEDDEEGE
GP IIb/IIIa, sequence (P05106 27-788): as the sequence (P05106 27-788) above
Method: Pharmacological Test Example 2: GP IIb/IIIa Antagonistic Activity and Human Platelet Aggregation Inhibitory Activity
GP IIb/IIIa antagonistic activity was measured for the compounds according to the present invention. The measurement of the GP IIb/IIIa antagonistic activity was carried out according to the method described in Pharmacological Test 2 in WO 94/21599.

solubility in water = format: physicochemical; conditions: dihydrochloride; data omitted

Row | IC50 [1] [nM] | IC50 (GP IIb/IIIa) [nM] | solubility in water (solubility in water) | Compound
1 | 2.8 | 12 | soluble in water | O=C(NC[C@H](O)C(=O)O)c1ccc(N2CCC(NC3=NCCCN3)CC2)c(F)c1 [Example 14, 3-[3-Fluoro-4-{4-(1,4,5,6-tetrahydropyrimidin-2-ylamino)piperidin-1-yl}benzoylamino]-(2S)-hydroxypropionic acid]
2 | 23 | 4.8 | soluble in water | O=C(NC[C@H](O)C(=O)O)c1ccc(N2CCC(NC3=NCCCN3)CC2)cc1 [Example 6, (2S)-Hydroxy-3-[4-{4-(1,4,5,6-tetrahydropyrimidin-2-ylamino)piperidin-1-yl}benzoylamino]-propionic acid]
